Assay results taken from patent publication US5852007A, “Cysteine and serine protease inhibitors containing D-amino acid at the P2 position, methods of making same, and methods of using same” (priority 1997, dated 1998).
Read-outs that look alike come from different tables or passages of the source. Square brackets hold non-standard residues; d marks the D form. Peptide text beside a SMILES is read from it. * marks the point of attachment. dPhg = N[C@@H](C(=O)O)c1ccccc1; Tos = Cc1ccc(S(=O)(=O)*)cc1; Bn = c1ccc(C*)cc1; Ms = CS(=O)(=O)*

Columns and labels:
Type in all cases: biochemical
α-chymotrypsin = target: T1, α-chymotrypsin (Bos taurus, UniProt P00766); assay: Inhibition of α-chymotrypsin; settings: 10 uM, read-out: Chymotrypsin % I @ 10 uM
T1 construct: purchased Sigma Chem. Co. C-3142
Procedure: Additionally, because α-chymotrypsin is not a calcium sensitive enzyme and is constitutively active, following addition of inhibitor stocks to the 96 well plates, 100 μl of a 2-fold concentrated stock of enzyme in dilution buffer was first added and the reaction started by addition of 100 μl of a 2-fold concentrated stock of substrate in assay buffer. Substrate hydrolysis was monitored every 5 minutes up to 30 minutes using a Fluoroskan II ([…]).

thrombin = target: T2, thrombin (Homo sapiens, UniProt P00734); assay: Inhibition of thrombin; settings: 10 uM, read-out: Thrombin % I @ 10 uM
T2 construct: purchased Sigma Chem. Co. T-7009

[1] = target: T3, Recombinant human calpain I (Homo sapiens, UniProt P07384); assay: Inhibition of calpain I activity
T3 construct: made in house
T3 sequence (P07384 1-714): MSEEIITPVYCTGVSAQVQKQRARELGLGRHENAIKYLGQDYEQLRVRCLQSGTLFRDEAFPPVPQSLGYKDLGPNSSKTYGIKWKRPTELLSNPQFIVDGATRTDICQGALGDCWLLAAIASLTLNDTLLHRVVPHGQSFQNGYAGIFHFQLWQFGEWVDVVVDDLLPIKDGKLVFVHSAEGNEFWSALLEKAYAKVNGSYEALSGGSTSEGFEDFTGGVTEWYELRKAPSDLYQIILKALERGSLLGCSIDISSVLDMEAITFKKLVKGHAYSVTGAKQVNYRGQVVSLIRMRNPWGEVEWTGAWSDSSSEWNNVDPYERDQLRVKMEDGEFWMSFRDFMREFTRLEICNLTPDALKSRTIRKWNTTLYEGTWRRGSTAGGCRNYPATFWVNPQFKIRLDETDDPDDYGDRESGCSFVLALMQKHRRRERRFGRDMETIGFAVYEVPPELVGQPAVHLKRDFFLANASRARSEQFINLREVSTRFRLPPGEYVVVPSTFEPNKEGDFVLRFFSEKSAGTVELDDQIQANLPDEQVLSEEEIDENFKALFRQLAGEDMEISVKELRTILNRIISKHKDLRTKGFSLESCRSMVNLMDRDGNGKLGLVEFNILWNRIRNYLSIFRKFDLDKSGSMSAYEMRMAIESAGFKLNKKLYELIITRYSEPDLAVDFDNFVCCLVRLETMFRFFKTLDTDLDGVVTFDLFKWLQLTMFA
Procedure: To evaluate inhibitory activity, stock solutions (40 times concentrated) of exemplary compounds of the invention were prepared in 100% anhydrous DMSO and 5 μL of each inhibitor preparation were aliquoted into each of three wells of a 96-well plate. Recombinant human calpain I, prepared by the method of Meyer et al. (Biochem. […] To start the reaction, 20 μL of 50 mM CaCl2 in assay buffer was added to all wells of the plate, excepting three, which were used as background signal baseline controls. Substrate hydrolysis was monitored every 5 minutes for a total of 30 minutes. […] Inhibition of calpain I activity was calculated as the percent decrease in the rate of substrate hydrolysis in the presence of inhibitor (VI) relative to the rate in its absence (VO). Comparison between VO and VI was made within the linear range for substrate hydrolysis. For screening, compounds were tested at 10, 1.0, and 0.1 μM. […] The results were plotted as % inhibition versus log inhibitor concentration and the IC50 was calculated from linear regression of the data. Apparent second order rate constants were determined from analysis of reaction progress curves under pseudo-first order conditions. Each determination represents the means of three or more independent single cuvette analyses continually monitored via a Perkin-Elmer LS50B spectrofluorimeter. The rate of inhibition of hydrolysis was obtained by fitting the curve to the exponential equation (1): […]

cathepsin B = target: T4, cathepsin B (Homo sapiens, UniProt P07858); assay: Inhibition of cathepsin B; settings: for inhibition at 1 µM: read-out: Cat B % I @ 1 uM; for IC50: read-out: Cat B IC50
T4 construct: purchased Calbiochem 219364
Procedure: (§1) Additionally,the order of reagents added to the plate was altered because both enzymes are constitutively active. Following inhibitor addition to the plates, appropriate 2× concentrated stock dilutions of the enzyme preparations were made in assay buffer and 100 μl added to each well. The assay was initiated by addition of 100 μl of 2× concentrated stock dilution of substrate in assay buffer.

cathepsin L = target: T5, cathepsin L (Homo sapiens, UniProt P07711); assay: Inhibition of cathepsin L; settings: for inhibition at 1 µM: Table III, read-out: Cat L % I @ 1 uM; for IC50: Table II, read-out: Cat L IC50
T5 construct: purchased Calbiochem 219402
T5 sequence (P07711 114-288 limits assumed): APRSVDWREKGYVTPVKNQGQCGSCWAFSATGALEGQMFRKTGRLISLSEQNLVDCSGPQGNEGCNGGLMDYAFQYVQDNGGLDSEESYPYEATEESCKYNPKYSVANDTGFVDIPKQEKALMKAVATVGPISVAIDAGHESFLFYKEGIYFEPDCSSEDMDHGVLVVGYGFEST
T5 sequence (P07711 292-333 limits assumed): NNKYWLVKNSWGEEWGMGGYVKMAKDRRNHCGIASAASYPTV
Procedure: as §1

Compound | inhibition at 10 µM (α-chymotrypsin; Table III) [%] | inhibition at 10 µM (thrombin; Table III) [%] | IC50 ([1]; Table III) [nM] | inhibition at 0.1 µM ([1]; Table III) [%] | inhibition at 1 µM (cathepsin B; Table III) [%] | inhibition at 1 µM (cathepsin L) [%] | inhibition at 10 µM (α-chymotrypsin; Table II) [%] | inhibition at 10 µM (thrombin; Table II) [%] | IC50 ([1]; Table II) [nM] | IC50 (cathepsin B; Table II) [nM] | IC50 (cathepsin L) [nM] | IC50 (cathepsin B; Table III) [nM]
CS(=O)(=O)N[C@H](C(=O)N[C@H](C=O)Cc1ccccc1)c1cccs1 [Compound 97] | 25 | 4 | 37 | 79 | 89 | 100 |  |  |  |  |  | 
CC(C)(C)OC(=O)N1CCCC[C@H](NC(=O)[C@@H](COCc2ccccc2)N(C(=O)OC(C)(C)C)S(C)(=O)=O)C1=O [Compound 127] | 1 | 0 |  | 6 | 36 | 7 |  |  |  |  |  | 
O=C[C@H](Cc1ccccc1)NC(=O)[C@@H](COCc1ccccc1)N1C(=O)c2ccccc2C1=O [Compound 94] | 1 | 0 |  | 14 | 0 | 93 |  |  |  |  |  | 
Cc1ccc(S(=O)(=O)N[C@H](Cc2ccccc2)C(=O)N[C@H](C=O)Cc2ccccc2)cc1 [Compound 61] (Tos-[dF]-Phe-aldehyde) | 0 | 0 | 22 | 83 | 100 | 100 |  |  |  |  |  | 
O=C[C@H](Cc1ccccc1)NC(=O)[C@@H](COCc1ccccc1)NC(=O)c1ccccc1 [Compound 44] | 0 | 7 | 280 | 29 | 62 | 100 |  |  |  |  |  | 
CC(=O)N[C@H](CSCc1ccccc1)C(=O)N[C@H](C=O)Cc1ccccc1 [Compound 25, BnS--CH2 CH(NHC(=O)CH3)C(=O)-Phe--H] (Ac-[dC](Bn)-Phe-aldehyde) |  |  |  |  |  |  | 3 | 0 | 26 | 5000 | 48 | 
CN(C)S(=O)(=O)N[C@H](COCc1ccccc1)C(=O)N[C@H](C=O)Cc1ccccc1 [Compound 47] | 2 | 6 | 9 | 91 | 96 | 98 |  |  |  |  |  | 
O=C[C@H](Cc1ccccc1)NC(=O)[C@@H](Cc1ccccc1)NS(=O)(=O)c1ccccc1 [Compound 59] | 4 | 0 | 20 | 86 | 100 | 100 |  |  |  |  |  | 5
CS(=O)(=O)N[C@@H](C(=O)N[C@H](C=O)Cc1ccccc1)c1ccccc1 [Compound 76] (Ms-[dPhg]-Phe-aldehyde) | 30 | 1 | 13 | 88 | 79 | 90 |  |  |  |  |  | 250
CS(=O)(=O)N[C@H](Cc1c[nH]c2ccccc12)C(=O)N[C@H](C=O)Cc1ccccc1 [Compound 77] (Ms-[dW]-Phe-aldehyde) | 0 | 0 | 14 | 91 | 90 | 93 |  |  |  |  |  | 
O=C[C@H](Cc1ccccc1)NC(=O)[C@@H](COCc1ccccc1)NC(=O)OCc1ccccc1 [Compound 64] | 10 | 0 |  | 68 | 87 | 100 |  |  |  |  |  | 
C[N+]([O-])=C[C@H](Cc1ccccc1)NC(=O)[C@@H](COCc1ccccc1)NS(C)(=O)=O [Compound 116] | 0 | 0 |  | 4 | 96 | 100 |  |  |  |  |  | 
Cc1ccc(S(=O)(=O)O[C@@H]2C[C@H](C(=O)N[C@H](C=O)Cc3ccccc3)N(S(=O)(=O)c3ccc(C)cc3)C2)cc1 [Compound 121] | 18 | 3 |  | 28 | 83 | 17 |  |  |  |  |  | 
CC(C)C[C@@H](NS(C)(=O)=O)C(=O)N[C@H](C=O)Cc1ccccc1 [Compound 86] (Ms-[dL]-Phe-aldehyde) | 8 | 0 | 40 | 72 | 78 | 100 |  |  |  |  |  | 
CN(Cc1ccccc1)C(=O)CC[C@@H](NS(C)(=O)=O)C(=O)N[C@H](C=O)Cc1ccccc1 [Compound 79] | 8 | 1 | 1000 | 47 | 99 | 93 |  |  |  |  |  | 
CC(=O)N[C@H](CC(=O)N1CCc2ccccc2C1)C(=O)N[C@H](C=O)Cc1ccccc1 [Compound 9, 2-THIQ-C(=O)CH2 CH(NHC(=O)CH3)C(=O)-Phe--H] |  |  |  |  |  |  | 2 | 0 | 83 | 11000 | 2000 | 
CCNC(=O)C(=O)[C@H](Cc1ccccc1)NC(=O)[C@@H](COCc1ccccc1)NS(C)(=O)=O [Compound 81] | 2 | 0 | 180 | 18 | 73 | 100 |  |  |  |  |  | 
CS(=O)(=O)N[C@H](COCc1ccccc1)C(=O)N[C@@H](Cc1ccccc1)C(O)S(=O)(=O)O (stereo partly shown) [Compound 128] | 1 | 0 | 8 | 89 | 99 | 100 |  |  |  |  |  | 
